These results are taken from ChEMBL document CHEMBL1201862, “PubChem BioAssay data set” (2004).

Test systems include SW-620; DU-145; SNB-19; SR; SN12C; MDA-N; OVCAR-5; HCT-15; COLO 205; HOP-62; A549; Malme-3M; MCF7; EKVX; MDA-MB-231; UACC-257; K562; HL-60; ACHN; MDA-MB-435.
Common to all, as to test: DTP human tumour cell line panel, 48 h

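Results reflect a 48-hour exposure of cells in 96-well plates to compound at five concentrations. Abbreviation: GI50, concentration required for 50% inhibition of growth.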 The source made the active and inactive calls. Cut-off read from the data, not from the text of the source: active = GI50 up to about 1.1 µM and inactive = higher. A value given as a limit tells only on which side of the number the result lay.

Usually GI50 stands for the concentration that inhibits growth by half.

As to `COC(=O)c1sc2c(Cl)c(Cl)sc2c1Cl`, the GI50 in the assay on SW-620, in the assay with DU-145, in the assay with SNB-19, with SR, in the assay on SN12C and with MDA-N was > 100 µM (inactive) each time. For the same compound, the GI50 is > 100 µM (inactive) in the assay with OVCAR-5; > 100 µM in the assay with HCT-15; > 100 µM (inactive) in the assay on COLO 205; 30.7 µM (inactive) in the assay on HOP-62; > 100 µM (inactive) in the assay with A549; > 100 µM (inactive) with Malme-3M. Besides, the GI50 in the assay with MCF7 is 50.5 µM (inactive); in the assay on EKVX, > 100 µM (inactive); in the assay with MDA-MB-231, > 100 µM (inactive); with UACC-257, > 100 µM (inactive); in the assay on K562, > 100 µM (inactive); with HL-60 it was > 100 µM (inactive). The GI50 in the assay with ACHN and in the assay with MDA-MB-435 was > 100 µM (inactive) each time.

On to `CCOC(=O)CC1c2ccc(O)cc2OC(=O)C1c1ccc([N+](=O)[O-])cc1` (stereo not given), for which the GI50 in the assay on SW-620 was 65.6 µM (inactive); with DU-145 it was 48.9 µM (inactive); with SNB-19, 63.5 µM (inactive); in the assay on SR, 31.8 µM (inactive); in the assay on SN12C, 21.8 µM (inactive); with MDA-N, 28.6 µM (inactive). Further, the GI50 with OVCAR-5 was 58.6 µM (inactive); in the assay on HCT-15, 30.4 µM; in the assay with COLO 205, 15.7 µM (inactive); in the assay on HOP-62, 20.2 µM (inactive); in the assay with A549, 27.5 µM (inactive); in the assay on Malme-3M it was 27.4 µM (inactive). Besides, the GI50 in the assay on MCF7 was 14.8 µM (inactive); with EKVX, 39.7 µM (inactive); in the assay with MDA-MB-231 it was 18.5 µM (inactive); in the assay on UACC-257 it was 28.8 µM (inactive); with K562, 30.4 µM (inactive); in the assay on HL-60, 34.1 µM (inactive). For the same compound, the GI50 was 25.2 µM (inactive) in the assay on ACHN and 25 µM (inactive) with MDA-MB-435.

Take `OCC(O)C(O)C(O)C1SC(c2ccccc2)=NN1c1ccccc1` (stereo not given): the GI50 with SW-620 was > 100 µM (inactive); with DU-145, > 61 µM (inactive); in the assay on SNB-19, 49.8 µM (inactive); in the assay on SR, > 81.3 µM (inactive); in the assay with SN12C, > 91.8 µM (inactive); in the assay with MDA-N, > 82.4 µM (inactive). Besides, the GI50 was > 84.9 µM (inactive) with OVCAR-5; > 100 µM with HCT-15; > 100 µM (inactive) in the assay with COLO 205; 38.9 µM (inactive) with HOP-62; 78.3 µM (inactive) in the assay on A549; > 82 µM (inactive) in the assay on Malme-3M. In addition, the GI50 was > 100 µM (inactive) in the assay with MCF7; > 95.7 µM (inactive) in the assay with EKVX; > 55 µM (inactive) with MDA-MB-231; > 89.1 µM (inactive) in the assay on UACC-257; > 70.1 µM (inactive) with K562; > 88.7 µM (inactive) in the assay with HL-60. The GI50 in the assay on ACHN was 64.7 µM (inactive); in the assay with MDA-MB-435 it was 97.9 µM (inactive).

Take `O=C(O)[C@H](CCC[C@H]1C(=O)O[C@H](c2ccccc2)[C@H](c2ccccc2)N1C(=O)OCc1ccccc1)N[C@@H](c1ccccc1)[C@H](O)c1ccccc1`: the GI50 with SW-620 is 25.1 µM (inactive); with DU-145, > 100 µM (inactive); with SNB-19, 30.3 µM (inactive); in the assay with SR, 20.7 µM (inactive); with SN12C, 20.7 µM (inactive); with MDA-N, 21.7 µM (inactive). In addition, the GI50 is 38.4 µM (inactive) in the assay on OVCAR-5; > 100 µM in the assay on HCT-15; 30.8 µM (inactive) with COLO 205; 19 µM (inactive) in the assay with HOP-62; > 100 µM (inactive) in the assay with A549; 21.2 µM (inactive) in the assay with Malme-3M. In addition, the GI50 was 28.3 µM (inactive) with MCF7; 38.6 µM (inactive) in the assay with EKVX; 17.7 µM (inactive) in the assay on MDA-MB-231; 39.7 µM (inactive) with UACC-257; 36.8 µM (inactive) with K562; 17.4 µM (inactive) with HL-60. Moreover, the GI50 is > 100 µM (inactive) in the assay with ACHN and 20.7 µM (inactive) in the assay with MDA-MB-435.
